Experimental data as given in patent publication US20260297094A1, “Tetracyclic Compounds as SMARCA2 and/or SMARCA4 Degraders” (Aurigene Oncology Limited, priority 2023, published 2026).
Counter-ions that a name gives are not always drawn.

Tests used:
Assay type in all cases: cell-based
MV-4-11 cells = experiment: Anti proliferative activity in MV-4-11 cells by Cell Titer Glo (Promega) assay; details: Homo sapiens, MV4-11, 72 h, 3 days, CellTiter-Glo
In short: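 MV-4-11 cells in complete DMEM were exposed to compound for 3 days in triplicate, final DMSO ≤0.3%. Viability was read by CellTiter-Glo ATP luminescence, and % inhibition was taken relative to the DMSO control. EC50 was derived from concentration-response curves.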

SMARCA4 = molecular target: T1, SMARCA4 (Homo sapiens, UniProt P51532); experiment: SMARCA4 degradation in MV-4-11 cells by Western blot; details: MV4-11, at 100 nM, 16 hours, vs DMSO, read-out: Percent degradation SMARCA4
T1 construct: endogenous in cells; host or cells: MV-4-11 (CRL-9591)
T1 sequence (P51532 whole entry): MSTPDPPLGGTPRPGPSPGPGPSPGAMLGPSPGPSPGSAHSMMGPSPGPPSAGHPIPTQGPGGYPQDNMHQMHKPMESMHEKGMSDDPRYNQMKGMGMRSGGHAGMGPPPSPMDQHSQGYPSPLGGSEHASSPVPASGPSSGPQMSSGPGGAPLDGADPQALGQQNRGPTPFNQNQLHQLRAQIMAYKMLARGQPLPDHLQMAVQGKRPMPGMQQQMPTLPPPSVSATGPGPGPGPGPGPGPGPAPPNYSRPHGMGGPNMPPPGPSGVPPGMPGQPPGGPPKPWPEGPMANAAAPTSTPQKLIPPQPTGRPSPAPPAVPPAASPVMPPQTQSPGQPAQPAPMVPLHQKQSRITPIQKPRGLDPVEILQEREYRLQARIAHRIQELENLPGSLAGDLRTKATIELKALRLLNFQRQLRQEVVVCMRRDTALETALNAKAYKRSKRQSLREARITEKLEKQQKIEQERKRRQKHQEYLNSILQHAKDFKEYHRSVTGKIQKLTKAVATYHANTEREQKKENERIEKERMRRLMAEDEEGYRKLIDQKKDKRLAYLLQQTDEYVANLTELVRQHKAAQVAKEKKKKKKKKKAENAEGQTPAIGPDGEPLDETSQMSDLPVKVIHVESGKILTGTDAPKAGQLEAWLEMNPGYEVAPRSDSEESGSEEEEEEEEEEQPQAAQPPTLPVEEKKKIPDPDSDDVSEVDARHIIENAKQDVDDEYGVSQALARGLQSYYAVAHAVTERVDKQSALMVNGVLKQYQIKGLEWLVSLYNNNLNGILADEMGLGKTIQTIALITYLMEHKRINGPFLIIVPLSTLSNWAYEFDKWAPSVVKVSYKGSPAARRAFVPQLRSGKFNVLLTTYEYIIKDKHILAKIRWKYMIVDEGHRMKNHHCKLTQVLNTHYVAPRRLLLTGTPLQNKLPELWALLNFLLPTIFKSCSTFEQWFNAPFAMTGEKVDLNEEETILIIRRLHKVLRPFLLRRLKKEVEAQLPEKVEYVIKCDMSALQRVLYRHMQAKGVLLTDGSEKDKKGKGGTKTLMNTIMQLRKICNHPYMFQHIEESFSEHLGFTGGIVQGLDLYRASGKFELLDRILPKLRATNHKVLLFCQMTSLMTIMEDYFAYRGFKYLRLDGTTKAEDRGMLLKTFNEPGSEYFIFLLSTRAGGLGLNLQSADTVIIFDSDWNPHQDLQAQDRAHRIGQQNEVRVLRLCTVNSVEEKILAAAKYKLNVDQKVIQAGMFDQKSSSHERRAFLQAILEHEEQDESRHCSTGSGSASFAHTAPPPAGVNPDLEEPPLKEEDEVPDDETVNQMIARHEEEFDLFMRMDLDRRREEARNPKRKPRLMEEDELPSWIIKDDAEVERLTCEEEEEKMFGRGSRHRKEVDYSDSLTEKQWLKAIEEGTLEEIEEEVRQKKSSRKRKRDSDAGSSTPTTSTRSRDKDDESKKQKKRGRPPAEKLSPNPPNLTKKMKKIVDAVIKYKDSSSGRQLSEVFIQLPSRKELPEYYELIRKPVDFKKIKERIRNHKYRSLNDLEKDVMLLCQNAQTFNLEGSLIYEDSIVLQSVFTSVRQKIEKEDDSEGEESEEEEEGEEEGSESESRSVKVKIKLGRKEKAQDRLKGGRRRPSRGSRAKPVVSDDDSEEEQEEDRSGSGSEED
Method: (§1) Example-P3: Determination of SMARCA2 and SMARCA4 Degradation in MV-4-11 Cells by Western Blot
(§2) MV-4-11 (CRL-9591™) cells were plated in 6 well plates using complete Iscove's Modified Dulbecco's Medium. On the third day, compounds of present invention were added to cells from 10 mM stocks made in DMSO (Sigma Cat no. D2650). Each concentration of compound was tested with DMSO not exceeding final percentage of 0.1 in the cells. Cells were incubated with the compound for 16 hours followed by harvesting with 1×RIPA lysis buffer (Thermo Fischer, catalogue number #89900) containing protease inhibitor cocktail (Sigma catalogue number #P-8340). Equal amount of protein was loaded on SDS PAGE gel for electrophoresis. Western blot was carried out for detection of either SMARCA2 (Cell signalling technologies, catalogue number #11966) or SMARCA4 antibody (Cell signalling technologies, catalogue number #52251). Beta-Tubulin antibody (Cell signalling technologies, catalogue number #86298) was used as loading control. Percentage of SMARCA2 or SMARCA4 degradation was calculated using formula % Degradation=100−(normalized band intensity in treated sample/normalized band intensity in DMSO sample)*100. Here, “ND” refers to Not determined.

SMARCA2 = molecular target: T2, SMARCA2 (Homo sapiens, UniProt P51531); experiment: SMARCA2 degradation in MV-4-11 cells by Western blot; details: MV4-11, 16 h, at 100 nM, vs DMSO, read-out: Percent degradation SMARCA2
T2 construct: endogenous in cells; host or cells: MV-4-11 (CRL-9591)
T2 sequence (P51531 whole entry): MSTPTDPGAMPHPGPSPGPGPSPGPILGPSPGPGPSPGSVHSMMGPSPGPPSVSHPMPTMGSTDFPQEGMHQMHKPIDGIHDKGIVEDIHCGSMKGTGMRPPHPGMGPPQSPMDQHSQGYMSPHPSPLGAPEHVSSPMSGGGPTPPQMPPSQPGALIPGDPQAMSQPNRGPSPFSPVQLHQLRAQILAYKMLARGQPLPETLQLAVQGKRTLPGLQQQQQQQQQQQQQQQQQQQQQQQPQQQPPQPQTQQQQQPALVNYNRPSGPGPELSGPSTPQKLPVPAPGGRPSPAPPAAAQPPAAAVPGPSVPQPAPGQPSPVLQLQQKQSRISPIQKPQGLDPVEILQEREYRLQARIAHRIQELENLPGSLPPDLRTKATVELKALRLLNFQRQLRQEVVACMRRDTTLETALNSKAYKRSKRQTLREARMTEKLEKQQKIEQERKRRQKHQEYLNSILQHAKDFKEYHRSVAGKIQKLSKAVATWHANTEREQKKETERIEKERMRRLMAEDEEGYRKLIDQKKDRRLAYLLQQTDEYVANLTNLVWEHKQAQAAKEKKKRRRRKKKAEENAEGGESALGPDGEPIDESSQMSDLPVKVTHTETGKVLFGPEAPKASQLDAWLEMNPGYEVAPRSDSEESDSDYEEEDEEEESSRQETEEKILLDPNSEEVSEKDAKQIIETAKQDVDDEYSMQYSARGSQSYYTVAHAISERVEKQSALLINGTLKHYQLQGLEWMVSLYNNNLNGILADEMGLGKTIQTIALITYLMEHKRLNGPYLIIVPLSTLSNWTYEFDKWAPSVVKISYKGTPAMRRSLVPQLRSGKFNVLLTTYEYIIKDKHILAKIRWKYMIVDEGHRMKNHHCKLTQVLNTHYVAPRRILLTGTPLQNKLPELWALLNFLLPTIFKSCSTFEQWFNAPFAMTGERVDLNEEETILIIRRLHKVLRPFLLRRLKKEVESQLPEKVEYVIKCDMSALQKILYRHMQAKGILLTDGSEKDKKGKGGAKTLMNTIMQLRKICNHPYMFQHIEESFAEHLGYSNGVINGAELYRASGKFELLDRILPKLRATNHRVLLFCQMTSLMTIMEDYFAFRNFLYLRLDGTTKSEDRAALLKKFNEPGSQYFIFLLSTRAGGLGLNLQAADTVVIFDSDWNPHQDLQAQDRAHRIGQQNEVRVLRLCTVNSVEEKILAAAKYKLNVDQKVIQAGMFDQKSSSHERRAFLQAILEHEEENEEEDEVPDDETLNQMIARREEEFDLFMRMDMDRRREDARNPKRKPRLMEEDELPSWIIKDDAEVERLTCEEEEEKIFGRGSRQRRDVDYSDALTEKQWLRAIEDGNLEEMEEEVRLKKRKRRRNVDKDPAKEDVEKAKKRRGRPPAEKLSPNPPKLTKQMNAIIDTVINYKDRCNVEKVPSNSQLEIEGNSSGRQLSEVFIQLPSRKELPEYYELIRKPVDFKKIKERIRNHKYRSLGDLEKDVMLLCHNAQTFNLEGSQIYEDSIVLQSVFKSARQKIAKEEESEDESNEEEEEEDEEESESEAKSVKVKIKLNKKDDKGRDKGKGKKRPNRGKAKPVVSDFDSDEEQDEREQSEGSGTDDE
Method: as §1, §2

SK-MEL-5 cells = experiment: Anti proliferative activity in SK-MEL-5 cells by Cell Titer Glo (Promega) assay; details: Homo sapiens, retreatment on Day 4, terminated on day 8, CellTiter-Glo
In short: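 SK-MEL-5 cells treated with 9-point 3-fold dilution series, re-dosed on day 4, read on day 8 by CellTiter-Glo luminescence. EC50 derived from percent proliferation inhibition versus concentration.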

| Compound | EC50 (MV-4-11 cells) | inhibition at 0.1 µM (SMARCA4) | inhibition at 0.1 µM (SMARCA2) | EC50 (SK-MEL-5 cells) |
| --- | --- | --- | --- | --- |
| Cn1c2cc(N3CCC(N4CCN(c5ccc(C6CCC(=O)NC6=O)cc5)CC4)CC3)ccc2n2c3cccc(N)c3c(=O)nc12 (stereo not shown) [Compound 32, 3-(4-(4-(1-(4-amino-7-methyl-5-oxo-5,7-dihydrobenzo[4,5]imidazo[1,2-a]quinazolin-9-yl)piperidin-4-yl)piperazin-1-yl)phenyl)piperidine-2,6-dione-HCl salt] | > 100 nM | 38% | 59% | > 100 nM |
| Cn1c2cc(N3CCC(N4CCC(c5ccc(C6CCC(=O)NC6=O)cc5)CC4)CC3)ccc2n2c3cccc(N)c3c(=O)nc12 (stereo not shown) [Compound 20, 3-(4-(1′-(4-amino-7-methyl-5-oxo-5,7-dihydrobenzo[4,5]imidazo[1,2-a]quinazolin-9-yl)-[1,4′-bipiperidin]-4-yl)phenyl)piperidine-2,6-dione] | > 100 nM | 81% | 80% | 10 to 100 nM |
| O=C1CCC(Nc2ccc(N3CCN(C4CCN(c5ccc6c(c5)n(C5CCCC5)c5nc(=O)c7c(Cl)cccc7n65)CC4)CC3)c(F)c2)C(=O)N1 (stereo not shown) [Compound 35, 3-((4-(4-(1-(4-chloro-7-cyclopentyl-5-oxo-5,7-dihydrobenzo[4,5]imidazo[1,2-a]quinazolin-9-yl)piperidin-4-yl)piperazin-1-y1)-3-fluorophenyl)amino)piperidine-2,6-dione-TFA salt] | > 100 nM | 91% | 98% | < 10 nM |
| Cn1c2cc(N3CCC(N4CCC(c5ccc(C6CCC(=O)NC6=O)cc5)CC4)CC3)ccc2n2c3cccc(Cl)c3c(=O)nc12 (stereo not shown) [Compound 18, 3-(4-(1′-(4-chloro-7-methyl-5-oxo-5,7-dihydrobenzo[4,5]imidazo[1,2-a]quinazolin-9-yl)-[1,4′-bipiperidin]-4-yl)phenyl)piperidine-2,6-dione] | < 10 nM | 95% | 98% | < 10 nM |
